Converted amounts (≈) assume the structure as drawn. “Also recorded” adds a separate entry of the source. Like-named read-outs stand apart in the source and are kept apart here.
How the values were obtained:
[1] = system: Salmonella typhimurium TA98
[2] = system: Sprague Dawley rats; assay: 28-day oral toxicity test: clinical signs, mortality, overall result
[3] = system: Salmonella typhimurium TA1535; assay: Antimutagenicity test, TA1535
[4] = Solubility in 95% ethanol; assay type: physicochemical; conditions: organic solvent or mixture
Method: Optical pure antrocin, with a purity > 95%, was provided by Professor Zhen Yang at the School of Chemical Biology and Biotechnology, Peking University. […] A 50 mg/mL ethanol solution of antrocin was prepared as a stock solution, and was diluted before testing. All of the samples were stored at 4 °C.

[5] = system: Sprague Dawley rats; assay: 28-day oral toxicity test: absolute organ weight
[6] = 28-day oral toxicity test: body weight; assay type: in vivo
[7] = TA98, with S9, mutagen 2-AA 25 μg/plate, antrocin 0.025 mg/plate
[8] = TA98, with S9, mutagen 2-AA 25 μg/plate, antrocin 0.05 mg/plate
[9] = TA98, with S9, mutagen 2-AA 25 μg/plate, antrocin […]
[10] = TA98, without S9, mutagen 4-NQO 2.5 μg/plate, antrocin 0.025 mg/plate
[11] = TA98, without S9, mutagen 4-NQO 2.5 μg/plate, antrocin 0.05 mg/plate
[12] = TA98, without S9, mutagen 4-NQO 2.5 μg/plate, antrocin […]
[13] = TA1535, with S9, mutagen 2-AA 25 μg/plate, antrocin 0.025 mg/plate
[14] = TA1535, with S9, mutagen 2-AA 25 μg/plate, antrocin 0.05 mg/plate
[15] = TA1535, with S9, mutagen 2-AA 25 μg/plate, antrocin […]
[16] = TA1535, without S9, mutagen sodium azide 5 μg/plate, antrocin 0.025 mg/plate
[17] = TA1535, without S9, mutagen sodium azide 5 μg/plate, antrocin 0.05 mg/plate
[18] = TA1535, without S9, mutagen sodium azide 5 μg/plate, antrocin […]
[19] = female rats, 7.5 mg/kg oral 28 d
[20] = female rats, 37.5 mg/kg oral 28 d
[21] = male rats, 37.5 mg/kg oral 28 d

## C=C1CC[C@H]2C(C)(C)CCC[C@@]23C(=O)OC[C@@H]13 [Antrocin, (-)-Antrocin]
[1]; [7]
  Inhibition (%) of mutagenicity: 18.17%
  Number of Revertant: 4959.0 ± 739.1 Colony/Plate
[1]; [8]
  Inhibition (%) of mutagenicity: 33.67%
  Number of Revertant: 4024.0 ± 251.1 Colony/Plate
[1]; [9]
  Inhibition (%) of mutagenicity: 6.21%
  Number of Revertant: 5680.3 ± 640.7 Colony/Plate
[1]; TA98, without S9, against direct mutagen 4-NQO
  antimutagenic agent strength: strong anti-mutagenic agent; also recorded: very strong anti-mutagenic effect
[1]; [10]
  Inhibition (%) of mutagenicity: 51.03%
  Number of Revertant: 67.7 ± 2.5 Colony/Plate
[1]; [11]
  Inhibition (%) of mutagenicity: 98.62%
  Number of Revertant: 21.7 ± 1.5 Colony/Plate
[1]; [12]
  Inhibition (%) of mutagenicity: 35.17%
  Number of Revertant: 83.0 ± 3.6 Colony/Plate
[2]; 7.5 or 37.5 mg/kg oral 28 d
  toxic effects according to hematology, serum chemistry, urine analysis, histopathological examinations: did not produce any toxic effects
[2]; 28-day oral toxicity test in rats
  highest dosage with no adverse effect: 37.5 mg/kg/day
[3]; [13]
  Inhibition (%) of mutagenicity: 20.49%
  Number of Revertant: 217.3 ± 10.2 Colony/Plate
[3]; [14]
  Inhibition (%) of mutagenicity: 33.25%
  Number of Revertant: 184.3 ± 3.8 Colony/Plate
[3]; [15]
  Inhibition (%) of mutagenicity: 8.63%
  Number of Revertant: 248.0 ± 9.5 Colony/Plate
[3]; [16]
  Inhibition (%) of mutagenicity: 16.74%
  Number of Revertant: 1095.0 ± 28.0 Colony/Plate
[3]; [17]
  Inhibition (%) of mutagenicity: 25.80%
  Number of Revertant: 977.0 ± 18.1 Colony/Plate
[3]; [18]
  Inhibition (%) of mutagenicity: 4.40%
  Number of Revertant: 1255.7 ± 47.7 Colony/Plate
[4]
  solubility: ~133 mg/mL (≈ 568 mM)
[5]; female rats (ovary), 7.5 mg/kg oral 28 d
  Testis/Ovary: 0.07 ± 0.02 g
[5]; female rats (ovary), 37.5 mg/kg oral 28 d
  Testis/Ovary: 0.10 ± 0.01 g
[5]; [19]
  Adrenal: 0.05 ± 0.01 g
  Brain: 1.9 ± 0.1 g
  Heart: 0.9 ± 0.1 g
  Kidney: 1.8 ± 0.1 g
  Liver: 8.5 ± 0.7 g
  Spleen: 0.4 ± 0.1 g
  Thymus: 0.4 ± 0.1 g
[5]; [20]
  Adrenal: 0.05 ± 0.01 g
  Brain: 2.0 ± 0.1 g
  Heart: 1.0 ± 0.1 g
  Kidney: 1.7 ± 0.1 g
  Liver: 7.8 ± 0.5 g
  Spleen: 0.4 ± 0.0 g
  Thymus: 0.4 ± 0.1 g
[5]; male rats (testis), 7.5 mg/kg oral 28 d
  Testis/Ovary: 3.1 ± 0.2 g
[5]; male rats (testis), 37.5 mg/kg oral 28 d
  Testis/Ovary: 3.2 ± 0.2 g
[5]; male rats, 7.5 mg/kg oral 28 d
  Adrenal: 0.05 ± 0.01 g
  Brain: 2.1 ± 0.2 g
  Heart: 1.3 ± 0.2 g
  Kidney: 2.8 ± 0.4 g
  Liver: 12.2 ± 1.9 g
  Spleen: 0.6 ± 0.1 g
  Thymus: 0.6 ± 0.1 g
[5]; [21]
  Adrenal: 0.06 ± 0.00 g
  Brain: 2.0 ± 0.1 g
  Heart: 1.3 ± 0.2 g
  Kidney: 2.7 ± 0.2 g
  Liver: 11.1 ± 1.2 g
  Spleen: 0.6 ± 0.1 g
  Thymus: 0.4 ± 0.1 g
[6]; female rats, 7.5 mg/kg oral, 0-Day
  Body Weight: 163.3 ± 6.3 g
[6]; female rats, 7.5 mg/kg oral, 7-Day
  Body Weight: 190.0 ± 9.0 g
[6]; female rats, 7.5 mg/kg oral, 7-Day (7th − 0th)
  Body Weight Gain: 26.7 ± 5.6 g
[6]; female rats, 7.5 mg/kg oral, 14-Day
  Body Weight: 212.9 ± 12.1 g
[6]; female rats, 7.5 mg/kg oral, 14-Day (14th − 7th)
  Body Weight Gain: 22.8 ± 6.0 g
[6]; female rats, 7.5 mg/kg oral, 21-Day
  Body Weight: 229.3 ± 14.6 g
[6]; female rats, 7.5 mg/kg oral, 21-Day (21st − 14th)
  Body Weight Gain: 16.4 ± 5.2 g
[6]; female rats, 7.5 mg/kg oral, 28-Day
  Body Weight: 246.6 ± 21.7 g
[6]; female rats, 7.5 mg/kg oral, 28-Day (28th − 21st)
  Body Weight Gain: 17.3 ± 7.9 g
[6]; female rats, 37.5 mg/kg oral, 0-Day
  Body Weight: 162.4 ± 6.3 g
[6]; female rats, 37.5 mg/kg oral, 7-Day
  Body Weight: 188.5 ± 7.9 g
[6]; female rats, 37.5 mg/kg oral, 7-Day (7th − 0th)
  Body Weight Gain: 26.1 ± 4.1 g
[6]; female rats, 37.5 mg/kg oral, 14-Day
  Body Weight: 212.0 ± 7.0 g
[6]; female rats, 37.5 mg/kg oral, 14-Day (14th − 7th)
  Body Weight Gain: 23.4 ± 3.6 g
[6]; female rats, 37.5 mg/kg oral, 21-Day
  Body Weight: 230.1 ± 9.7 g
[6]; female rats, 37.5 mg/kg oral, 21-Day (21st − 14th)
  Body Weight Gain: 18.1 ± 5.0 g
[6]; female rats, 37.5 mg/kg oral, 28-Day
  Body Weight: 241.7 ± 13.6 g
[6]; female rats, 37.5 mg/kg oral, 28-Day (28th − 21st)
  Body Weight Gain: 11.6 ± 6.3 g
[6]; male rats, 7.5 mg/kg oral, 0-Day
  Body Weight: 181.4 ± 5.1 g
[6]; male rats, 7.5 mg/kg oral, 7-Day
  Body Weight: 237.9 ± 13.6 g
[6]; male rats, 7.5 mg/kg oral, 7-Day (7th − 0th)
  Body Weight Gain: 56.5 ± 10.1 g
[6]; male rats, 7.5 mg/kg oral, 14-Day
  Body Weight: 295.0 ± 22.5 g
[6]; male rats, 7.5 mg/kg oral, 14-Day (14th − 7th)
  Body Weight Gain: 57.1 ± 8.9 g
[6]; male rats, 7.5 mg/kg oral, 21-Day
  Body Weight: 349.5 ± 34.3 g
[6]; male rats, 7.5 mg/kg oral, 21-Day (21st − 14th)
  Body Weight Gain: 54.5 ± 12.4 g
[6]; male rats, 7.5 mg/kg oral, 28-Day
  Body Weight: 389.6 ± 46.6 g
[6]; male rats, 7.5 mg/kg oral, 28-Day (28th − 21st)
  Body Weight Gain: 40.1 ± 12.5 g
[6]; male rats, 37.5 mg/kg oral, 0-Day
  Body Weight: 183.9 ± 9.0 g
[6]; male rats, 37.5 mg/kg oral, 7-Day
  Body Weight: 235.6 ± 9.6 g
[6]; male rats, 37.5 mg/kg oral, 7-Day (7th − 0th)
  Body Weight Gain: 51.8 ± 4.7 g
[6]; male rats, 37.5 mg/kg oral, 14-Day
  Body Weight: 289.0 ± 17.3 g
[6]; male rats, 37.5 mg/kg oral, 14-Day (14th − 7th)
  Body Weight Gain: 53.4 ± 13.9 g
[6]; male rats, 37.5 mg/kg oral, 21-Day
  Body Weight: 332.3 ± 21.0 g
[6]; male rats, 37.5 mg/kg oral, 21-Day (21st − 14th)
  Body Weight Gain: 43.2 ± 7.7 g
[6]; male rats, 37.5 mg/kg oral, 28-Day
  Body Weight: 367.6 ± 30.6 g
[6]; male rats, 37.5 mg/kg oral, 28-Day (28th − 21st)
  Body Weight Gain: 35.3 ± 12.9 g

Reference: article PMC10301922, “Anti-Oxidant, Anti-Mutagenic Activity and Safety Evaluation of Antrocin” (Toxics, 2023)
